The source made the active and inactive calls. No cut-off for these calls is given here.

Assay [1] deals with T1, Receptor tyrosine-protein kinase erbB-2 (Homo sapiens, UniProt P04626). In words: Inhibition of human N-terminal DYKDDDD-tagged HER2 cytoplasmic domain (676 to 1255) expressed in baculovirus expression system incubated for 5 mins prior to [gamma-32P]ATP addition measured after 10 mins by scintillation counting analysis.
The target in assay [2] is Epidermal growth factor receptor (Homo sapiens, UniProt P00533). Briefly: Inhibition of human N-terminal DYKDDDD-tagged EGFR cytoplasmic domain (669 to 1210) expressed in baculovirus expression system incubated for 5 mins prior to [gamma-32P]ATP addition measured after 10 mins by scintillation counting analysis.
Chain of Epidermal growth factor receptor (P00533 whole entry, the tested form may be a part): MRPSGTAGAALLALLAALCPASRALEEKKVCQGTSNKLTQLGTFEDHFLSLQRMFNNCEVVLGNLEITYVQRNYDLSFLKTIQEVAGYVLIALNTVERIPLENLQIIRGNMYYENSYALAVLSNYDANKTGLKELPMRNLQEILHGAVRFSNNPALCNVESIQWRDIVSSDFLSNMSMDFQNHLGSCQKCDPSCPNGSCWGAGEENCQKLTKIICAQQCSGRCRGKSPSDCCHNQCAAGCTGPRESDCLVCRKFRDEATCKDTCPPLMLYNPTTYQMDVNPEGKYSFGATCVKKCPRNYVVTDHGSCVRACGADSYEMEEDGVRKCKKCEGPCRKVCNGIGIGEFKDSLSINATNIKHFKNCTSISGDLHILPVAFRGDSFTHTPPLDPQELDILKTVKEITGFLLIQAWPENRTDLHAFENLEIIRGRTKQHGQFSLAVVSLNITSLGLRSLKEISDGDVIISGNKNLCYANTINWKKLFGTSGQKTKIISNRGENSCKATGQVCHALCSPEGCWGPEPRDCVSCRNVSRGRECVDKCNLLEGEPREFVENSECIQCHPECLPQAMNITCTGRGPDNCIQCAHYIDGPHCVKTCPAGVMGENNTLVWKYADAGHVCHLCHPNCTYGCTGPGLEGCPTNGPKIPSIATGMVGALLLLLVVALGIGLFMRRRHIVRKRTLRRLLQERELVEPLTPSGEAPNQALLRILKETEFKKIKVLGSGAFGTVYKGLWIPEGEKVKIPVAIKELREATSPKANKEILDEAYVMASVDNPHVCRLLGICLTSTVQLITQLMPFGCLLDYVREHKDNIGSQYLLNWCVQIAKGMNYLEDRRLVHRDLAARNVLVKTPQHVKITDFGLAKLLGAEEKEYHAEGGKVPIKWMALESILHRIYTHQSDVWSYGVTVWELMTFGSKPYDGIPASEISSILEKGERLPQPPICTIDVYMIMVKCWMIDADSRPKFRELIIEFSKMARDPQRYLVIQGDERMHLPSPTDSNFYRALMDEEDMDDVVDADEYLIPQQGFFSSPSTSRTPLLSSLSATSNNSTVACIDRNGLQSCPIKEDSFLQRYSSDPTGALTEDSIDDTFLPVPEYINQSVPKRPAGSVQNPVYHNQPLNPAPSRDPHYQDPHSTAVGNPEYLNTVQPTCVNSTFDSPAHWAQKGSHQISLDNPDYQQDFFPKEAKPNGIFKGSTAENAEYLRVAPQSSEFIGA
The test system of another assay is BT-474. In words: Growth inhibition of human BT474 cells overexpressing HER2 after 5 days. The settings on record: BT-474, 120 h. The class given is functional.
In another assay the target is Insulin receptor (Homo sapiens, UniProt P06213). In words: Inhibition of InsR (unknown origin) incubated for 5 mins prior to ATP addition measured after 60 mins by Alphascreen assay.
For assay [3], the target named is Platelet-derived growth factor receptor alpha (Homo sapiens, UniProt P16234). In words: Inhibition of PDGFRalpha (unknown origin) incubated for 5 mins prior to ATP addition measured after 30 mins by Alphascreen assay.
The target of assay [4] is Insulin-like growth factor 1 receptor (Homo sapiens, UniProt P08069). In words: Inhibition of IGF1R (unknown origin) incubated for 5 mins prior to ATP addition measured after 20 mins by Alphascreen assay. On the technique in general: In Alpha technology, singlet oxygen from a donor bead excites a nearby acceptor bead.
In assay [5] the target is Receptor tyrosine-protein kinase erbB-4 (Homo sapiens, UniProt Q15303). Briefly: Inhibition of HER4 cytoplasmic domain (unknown origin) expressed in baculovirus expression system incubated for 5 mins prior to [gamma-32P]ATP addition measured after 10 mins by scintillation counting analysis.
Chain of Receptor tyrosine-protein kinase erbB-4 (Q15303 whole entry, the tested form may be a part): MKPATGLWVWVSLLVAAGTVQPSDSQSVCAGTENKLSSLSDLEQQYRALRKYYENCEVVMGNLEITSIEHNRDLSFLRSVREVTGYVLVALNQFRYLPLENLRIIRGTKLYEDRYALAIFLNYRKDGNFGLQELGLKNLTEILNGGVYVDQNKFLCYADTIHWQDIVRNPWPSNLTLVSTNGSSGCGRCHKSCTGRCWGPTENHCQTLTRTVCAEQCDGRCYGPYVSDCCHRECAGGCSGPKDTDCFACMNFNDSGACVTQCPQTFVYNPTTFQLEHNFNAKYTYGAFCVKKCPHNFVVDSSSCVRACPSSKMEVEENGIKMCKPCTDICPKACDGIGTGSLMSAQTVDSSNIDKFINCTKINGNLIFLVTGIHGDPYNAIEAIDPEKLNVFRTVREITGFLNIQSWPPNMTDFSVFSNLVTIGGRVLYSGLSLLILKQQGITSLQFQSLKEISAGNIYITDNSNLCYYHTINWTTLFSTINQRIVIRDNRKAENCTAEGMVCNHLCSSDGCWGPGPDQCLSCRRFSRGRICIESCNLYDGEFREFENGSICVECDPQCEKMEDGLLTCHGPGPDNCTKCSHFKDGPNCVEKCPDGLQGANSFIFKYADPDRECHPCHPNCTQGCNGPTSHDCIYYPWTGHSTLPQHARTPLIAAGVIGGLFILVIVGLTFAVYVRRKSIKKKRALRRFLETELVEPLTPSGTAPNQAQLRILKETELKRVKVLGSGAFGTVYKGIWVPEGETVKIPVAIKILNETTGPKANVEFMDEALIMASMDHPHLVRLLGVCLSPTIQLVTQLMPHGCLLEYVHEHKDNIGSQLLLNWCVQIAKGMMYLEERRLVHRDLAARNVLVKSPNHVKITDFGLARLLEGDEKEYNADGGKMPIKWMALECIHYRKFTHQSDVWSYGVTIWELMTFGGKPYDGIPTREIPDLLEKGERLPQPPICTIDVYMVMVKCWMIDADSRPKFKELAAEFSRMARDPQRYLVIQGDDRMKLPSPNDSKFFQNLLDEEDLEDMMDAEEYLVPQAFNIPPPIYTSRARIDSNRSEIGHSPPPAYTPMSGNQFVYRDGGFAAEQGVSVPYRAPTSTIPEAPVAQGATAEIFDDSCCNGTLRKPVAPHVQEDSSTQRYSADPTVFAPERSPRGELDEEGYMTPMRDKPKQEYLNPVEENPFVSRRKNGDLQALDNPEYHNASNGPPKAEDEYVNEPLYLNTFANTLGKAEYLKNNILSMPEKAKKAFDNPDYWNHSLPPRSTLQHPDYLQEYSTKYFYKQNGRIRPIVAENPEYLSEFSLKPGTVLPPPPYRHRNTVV
Assay [6] has as its target Vascular endothelial growth factor receptor 2 (Homo sapiens, UniProt P35968). In words: Inhibition of N-terminal FLAG-tagged VEGFR2 cytoplasmic domain (unknown origin) incubated for 5 mins prior to ATP addition measured after 10 mins by Alphascreen assay.
Assay [7] deals with Mitogen-activated protein kinase 3 (Homo sapiens, UniProt P27361). Briefly: Inhibition of N-terminal FLAG-tagged ERK1 (unknown origin) expressed in baculovirus expression system incubated for 5 mins prior to [gamma-33P]ATP addition measured after 60 mins by scintillation counting analysis.
A short description of assay [8]: Inhibition of PKA (unknown origin) expressed in Escherichia coli expression system incubated for 5 mins prior to [gamma-33P]ATP addition measured after 10 mins by scintillation counting analysis. On the set-up: species or system Homo sapiens.
In assay [9] the target is Dual specificity mitogen-activated protein kinase kinase 1 (Homo sapiens, UniProt Q02750). Briefly: Inhibition of N-terminal GST-fused MEK1 (unknown origin) incubated for 5 mins prior to [gamma-33P]ATP addition measured after 20 mins by scintillation counting analysis.
In assay [10] the target is Dual specificity mitogen-activated protein kinase kinase 5 (Homo sapiens, UniProt Q13163). Briefly: Inhibition of N-terminal FLAG-tagged MEK5 (unknown origin) expressed in baculovirus expression system incubated for 5 mins prior to [gamma-33P]ATP addition measured after 30 mins by scintillation counting analysis.
Assay [11] has as its target Mitogen-activated protein kinase kinase kinase 5 (Homo sapiens, UniProt Q99683). In words: Inhibition of N-terminal FLAG-tagged ASK1 (unknown origin) expressed in baculovirus expression system incubated for 5 mins prior to [gamma-33P]ATP addition measured after 60 mins by scintillation counting analysis.
In assay [12] the target is Mast/stem cell growth factor receptor Kit (Homo sapiens, UniProt P10721). In words: Inhibition of c-kit (unknown origin) incubated for 5 mins prior to ATP addition measured after 20 mins by Alphascreen assay.
Assay [13] has as its target Mitogen-activated protein kinase kinase kinase 1 (Homo sapiens, UniProt Q13233). Briefly: Inhibition of C-terminal FLAG-tagged MEKK (unknown origin) expressed in baculovirus expression system incubated for 5 mins prior to [gamma-33P]ATP addition measured after 60 mins by scintillation counting analysis.
The target of assay [14] is T2, Tyrosine-protein kinase Lyn (Homo sapiens, UniProt P07948). In words: Inhibition of LYNB (unknown origin) incubated for 5 mins prior to ATP addition measured after 10 mins by Alphascreen assay.
T2 sequence (P07948 whole entry): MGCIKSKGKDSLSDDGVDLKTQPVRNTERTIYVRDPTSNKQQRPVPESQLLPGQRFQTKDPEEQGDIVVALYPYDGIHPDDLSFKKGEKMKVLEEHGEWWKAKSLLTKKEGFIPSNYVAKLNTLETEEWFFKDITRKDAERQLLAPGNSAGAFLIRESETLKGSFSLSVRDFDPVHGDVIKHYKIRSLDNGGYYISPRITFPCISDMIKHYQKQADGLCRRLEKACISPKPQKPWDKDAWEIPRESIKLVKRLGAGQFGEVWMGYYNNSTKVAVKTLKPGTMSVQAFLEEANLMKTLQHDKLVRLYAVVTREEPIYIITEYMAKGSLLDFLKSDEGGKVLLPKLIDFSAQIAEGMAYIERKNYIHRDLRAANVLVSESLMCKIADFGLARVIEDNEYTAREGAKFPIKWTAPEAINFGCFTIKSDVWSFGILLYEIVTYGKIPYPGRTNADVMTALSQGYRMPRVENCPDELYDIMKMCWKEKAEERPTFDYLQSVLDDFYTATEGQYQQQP
Assay [15] addresses Protein kinase C theta type (Homo sapiens, UniProt Q04759). Briefly: Inhibition of N-terminal FLAG-tagged PKCtheta (unknown origin) expressed in baculovirus expression system incubated for 5 mins prior to [gamma-33P]ATP addition measured after 60 mins by scintillation counting analysis.
Assay [16] has as its target T1, Receptor tyrosine-protein kinase erbB-2. In words: Pseudo-irreversible inhibition of human N-terminal DYKDDDD-tagged HER2 cytoplasmic domain (676 to 1255) expressed in baculovirus expression system at 10 times IC50 preincubated for 15 mins followed by 100 fold dilution measured after 16 hrs by Alphascreen assay.
In a further assay the target is Aurora kinase B (Homo sapiens, UniProt Q96GD4). Briefly: Inhibition of N-terminal His6x-tagged aurora-B (unknown origin) expressed in baculovirus expression system incubated for 5 mins prior to [gamma-33P]ATP addition measured after 60 mins by scintillation counting analysis.
Assay [17] has as its target Fibroblast growth factor receptor 3 (Homo sapiens, UniProt P22607). Briefly: Inhibition of FGFR3 (unknown origin) incubated for 5 mins prior to ATP addition measured after 10 mins by Alphascreen assay.
For assay [18], the target named is Mitogen-activated protein kinase 14 (Homo sapiens, UniProt Q16539). In words: Inhibition of N-terminal FLAG-tagged p38alpha (unknown origin) expressed in baculovirus expression system incubated for 5 mins prior to [gamma-33P]ATP addition measured after 60 mins by scintillation counting analysis.
Assay [19] deals with Hepatocyte growth factor receptor (Homo sapiens, UniProt P08581). In words: Inhibition of c-MET (unknown origin) incubated for 5 mins prior to ATP addition measured after 10 mins by Alphascreen assay.
A further assay deals with Angiopoietin-1 receptor (Homo sapiens, UniProt Q02763). Briefly: Inhibition of TIE2 (unknown origin) incubated for 5 mins prior to ATP addition measured after 10 mins by Alphascreen assay.
Assay [20] addresses Platelet-derived growth factor receptor beta (Homo sapiens, UniProt P09619). In words: Inhibition of PDGFRbeta (unknown origin) incubated for 5 mins prior to ATP addition measured after 60 mins by Alphascreen assay.
Assay [21] has as its target Fibroblast growth factor receptor 1 (Homo sapiens, UniProt P11362). Briefly: Inhibition of FGFR1 (unknown origin) incubated for 5 mins prior to ATP addition measured after 10 mins by Alphascreen assay.
For assay [22], the target named is Dual specificity protein kinase TTK (Homo sapiens, UniProt P33981). Briefly: Inhibition of N-terminal FLAG-tagged TTK (unknown origin) expressed in baculovirus expression system incubated for 5 mins prior to [gamma-33P]ATP addition measured after 10 mins by scintillation counting analysis.
The target in assay [23] is Serine/threonine-protein kinase PLK1 (Homo sapiens, UniProt P53350). In words: Inhibition of N-terminal FLAG-tagged PLK (unknown origin) expressed in baculovirus expression system incubated for 5 mins prior to [gamma-33P]ATP addition measured after 40 mins by scintillation counting analysis.
Chain of Serine/threonine-protein kinase PLK1 (P53350 whole entry): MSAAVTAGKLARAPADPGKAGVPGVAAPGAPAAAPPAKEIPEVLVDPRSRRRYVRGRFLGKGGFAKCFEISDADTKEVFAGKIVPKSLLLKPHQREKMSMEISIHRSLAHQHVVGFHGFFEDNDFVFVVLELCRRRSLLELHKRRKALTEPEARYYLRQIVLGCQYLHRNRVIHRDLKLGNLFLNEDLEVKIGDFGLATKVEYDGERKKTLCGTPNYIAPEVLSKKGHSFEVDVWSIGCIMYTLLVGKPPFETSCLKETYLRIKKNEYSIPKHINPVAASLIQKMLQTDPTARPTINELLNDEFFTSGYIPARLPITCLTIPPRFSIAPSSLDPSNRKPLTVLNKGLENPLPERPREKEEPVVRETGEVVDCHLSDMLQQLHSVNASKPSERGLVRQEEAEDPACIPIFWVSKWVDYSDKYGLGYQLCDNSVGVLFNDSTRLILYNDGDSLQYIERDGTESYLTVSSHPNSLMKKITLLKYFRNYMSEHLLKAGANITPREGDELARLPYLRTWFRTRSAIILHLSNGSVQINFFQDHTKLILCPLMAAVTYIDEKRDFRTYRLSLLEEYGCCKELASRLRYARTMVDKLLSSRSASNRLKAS
For assay [24], the target named is T2, Tyrosine-protein kinase Lyn. In words: Inhibition of LYNA (unknown origin) incubated for 5 mins prior to ATP addition measured after 10 mins by Alphascreen assay.
The target of assay [25] is Tyrosine-protein kinase ZAP-70 (Homo sapiens, UniProt P43403). In words: Inhibition of ZAP70 (unknown origin) incubated for 5 mins prior to ATP addition measured after 10 mins by Alphascreen assay.
Assay [26] addresses Cytoplasmic tyrosine-protein kinase BMX (Homo sapiens, UniProt P51813). In words: Inhibition of N-terminal FLAG-tagged full length BMX (unknown origin) expressed in baculovirus expression system incubated for 5 mins prior to ATP addition measured after 10 mins by Alphascreen assay.
For assay [27], the target named is Mitogen-activated protein kinase 8 (Homo sapiens, UniProt P45983). Briefly: Inhibition of N-terminal FLAG-tagged JNK1 (unknown origin) expressed in baculovirus expression system incubated for 5 mins prior to [gamma-33P]ATP addition measured after 60 mins by scintillation counting analysis.
The target of assay [28] is Tyrosine-protein kinase Lck (Homo sapiens, UniProt P06239). In words: Inhibition of LCK (unknown origin) incubated for 5 mins prior to ATP addition measured after 30 mins by Alphascreen assay.
Assay [29] has as its target Glycogen synthase kinase-3 beta (Homo sapiens, UniProt P49841). Briefly: Inhibition of N-terminal FLAG-tagged GSK3beta (unknown origin) expressed in baculovirus expression system incubated for 5 mins prior to [gamma-33P]ATP addition measured after 30 mins by scintillation counting analysis.
For assay [30], the target named is Inhibitor of nuclear factor kappa-B kinase subunit beta (Homo sapiens, UniProt O14920). In words: Inhibition of C-terminal FLAG-tagged IKKbeta (unknown origin) expressed in baculovirus expression system incubated for 5 mins prior to [gamma-33P]ATP addition measured after 5 mins by scintillation counting analysis.
For assay [31], the target named is Serine/threonine-protein kinase B-raf (Homo sapiens, UniProt P15056). In words: Inhibition of wild type N-terminal FLAG-tagged B-raf (unknown origin) expressed in baculovirus expression system incubated for 5 mins prior to [gamma-33P]ATP addition measured after 20 mins by scintillation counting analysis.
Assay [32] concerns the target Vascular endothelial growth factor receptor 1 (Homo sapiens, UniProt P17948). In words: Inhibition of VEGFR1 (unknown origin) incubated for 5 mins prior to ATP addition measured after 5 mins by Alphascreen assay.
The target in assay [33] is Tyrosine-protein kinase CSK (Homo sapiens, UniProt P41240). In words: Inhibition of CSK (unknown origin) incubated for 5 mins prior to ATP addition measured after 10 mins by Alphascreen assay.

T1 sequence (P04626 whole entry, the tested form may be a part): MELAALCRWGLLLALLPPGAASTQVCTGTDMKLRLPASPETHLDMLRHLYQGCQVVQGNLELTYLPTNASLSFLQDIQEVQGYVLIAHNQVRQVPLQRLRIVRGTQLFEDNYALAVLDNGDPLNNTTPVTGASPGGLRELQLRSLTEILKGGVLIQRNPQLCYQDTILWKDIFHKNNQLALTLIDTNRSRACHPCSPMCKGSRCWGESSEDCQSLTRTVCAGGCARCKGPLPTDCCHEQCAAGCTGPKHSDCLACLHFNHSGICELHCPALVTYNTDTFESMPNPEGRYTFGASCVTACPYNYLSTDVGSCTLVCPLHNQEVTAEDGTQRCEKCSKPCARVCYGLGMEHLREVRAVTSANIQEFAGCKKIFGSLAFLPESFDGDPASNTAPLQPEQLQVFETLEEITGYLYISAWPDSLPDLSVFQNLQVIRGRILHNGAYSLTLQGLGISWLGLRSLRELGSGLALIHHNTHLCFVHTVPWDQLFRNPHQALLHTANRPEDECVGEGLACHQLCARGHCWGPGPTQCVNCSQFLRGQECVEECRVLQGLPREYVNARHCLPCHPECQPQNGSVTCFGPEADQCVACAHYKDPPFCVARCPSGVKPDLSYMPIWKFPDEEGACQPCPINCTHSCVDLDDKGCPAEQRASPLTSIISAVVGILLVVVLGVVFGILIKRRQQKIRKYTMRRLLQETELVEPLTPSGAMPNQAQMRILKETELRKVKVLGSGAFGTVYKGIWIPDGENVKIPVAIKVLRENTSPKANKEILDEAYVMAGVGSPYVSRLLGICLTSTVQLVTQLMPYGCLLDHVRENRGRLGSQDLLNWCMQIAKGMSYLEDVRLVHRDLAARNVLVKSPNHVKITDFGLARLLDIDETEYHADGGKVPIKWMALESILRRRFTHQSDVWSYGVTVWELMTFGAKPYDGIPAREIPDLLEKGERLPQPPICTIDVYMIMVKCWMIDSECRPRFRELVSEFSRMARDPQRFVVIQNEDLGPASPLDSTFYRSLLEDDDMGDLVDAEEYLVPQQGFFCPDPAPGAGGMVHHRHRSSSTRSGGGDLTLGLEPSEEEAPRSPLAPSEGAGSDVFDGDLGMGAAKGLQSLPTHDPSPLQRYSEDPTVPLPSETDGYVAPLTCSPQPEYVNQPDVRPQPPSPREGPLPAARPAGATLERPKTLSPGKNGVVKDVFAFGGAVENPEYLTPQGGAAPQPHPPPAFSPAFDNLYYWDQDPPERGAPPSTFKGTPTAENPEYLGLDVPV

Broadly, the IC50 is the point on the concentration scale where inhibition reaches its midpoint. Lower therefore signals greater potency. By GI50 is commonly meant the concentration giving 50% growth inhibition. Higher therefore signals lower sensitivity of the cells. As for `O=C(NCCO)C1=Cc2c(ncnc2Nc2ccc(Oc3cccc(C(F)(F)F)c3)c(Cl)c2)NCC1`, the half-maximal inhibitory concentration (IC50) turned out to be 0.029 µM in assay [1] and 0.038 µM in assay [2]. The molecule also showed a GI50 in the assay with BT-474 of 0.63 µM.

With `COC(=O)C1=Cc2c(ncnc2Nc2ccc(Oc3cccc4sccc34)c(Cl)c2)NCC1`, the figures for the IC50 in assay [1] and in [2] were 0.018 µM and 0.044 µM, respectively. Besides, the 50% growth inhibitory concentration (GI50) with BT-474 worked out at 0.19 µM.

For the molecule `CC(C)(O)CC(=O)NCCn1ccc2ncnc(Nc3ccc(Oc4cccc(C(F)(F)F)c4)c(Cl)c3)c21` [TAK-285], in the assay with BT-474, growth was halved (GI50) at 0.017 µM.

With `O=C(NCCO)C1=Cc2c(ncnc2Nc2ccc(Oc3cccc4sccc34)c(Cl)c2)NCC1`, the 50% inhibitory concentration (IC50) is greater than 10 µM against Insulin receptor; greater than 10 µM in assay [3]; greater than 10 µM in [4]; 0.24 µM in [5]; greater than 10 µM in [6]; greater than 10 µM in assay [7]. In addition, the half-inhibitory concentration (IC50) in assay [8] was greater than 10 µM; in assay [9], greater than 10 µM; in assay [1] it was 0.024 µM; in [10], 0.87 µM; in assay [11], greater than 10 µM; in [12] it was greater than 10 µM. Further, the IC50 was greater than 10 µM in assay [13]; 3 µM in [14]; greater than 10 µM in [15]; greater than 10 µM against Aurora kinase B; greater than 10 µM in [17]; 1.7 µM in assay [18]. The IC50 is 5.6 µM in assay [19]; greater than 10 µM at Angiopoietin-1 receptor; greater than 10 µM in assay [20]; greater than 10 µM in assay [21]; greater than 10 µM in assay [22]; greater than 10 µM in assay [23]. Moreover, the IC50 in [24] was 9.8 µM; in [25] it was greater than 10 µM; in assay [26] it was greater than 10 µM; in [27], greater than 10 µM; in [28], 3.2 µM; in [29] it was greater than 10 µM. For the same molecule, the IC50 was greater than 10 µM in assay [30], 0.23 µM in assay [31], greater than 10 µM in assay [32] and greater than 10 µM in assay [33]. Also, the inhibition result in [16] is “Active”. In addition, it took 0.018 µM to inhibit growth in the assay on BT-474 by half (GI50).

Consider `COC(=O)C1=Cc2c(ncnc2Nc2ccc(Oc3cccc(C(F)(F)F)c3)c(Cl)c2)NCC1`, for which the IC50 in assay [1] amounted to 0.1 µM; in assay [2] it was 0.11 µM. For the same molecule, growth in the assay on BT-474 was halved (GI50) at 2 µM.

For `CS(=O)(=O)CCNC(=O)C1=Cc2c(ncnc2Nc2ccc(Oc3cccc(C(F)(F)F)c3)c(Cl)c2)NCC1`, the half-maximal inhibitory concentration (IC50) amounted to 0.065 µM in assay [1] and 0.075 µM in assay [2]. In addition, in the assay with BT-474, growth was halved (GI50) at 0.62 µM.

On to `CS(=O)(=O)CCNC(=O)C1=Cc2c(ncnc2Nc2ccc(Oc3cccc4sccc34)c(Cl)c2)NCC1`, for which the concentration for half-maximal inhibition (IC50) is 0.03 µM in assay [1] and 0.047 µM in [2]. In addition, the concentration for 50% growth inhibition (GI50) in the assay with BT-474 was found to be 0.025 µM.

Source of the values: ChEMBL document CHEMBL2346616, “Design and synthesis of novel pyrimido[4,5-b]azepine derivatives as HER2/EGFR dual inhibitors” (Bioorg Med Chem, 2013).
